Data from paper PMC9138505, “Small Molecule 20S Proteasome Enhancer Regulates MYC Protein Stability and Exhibits Antitumor Activity in Multiple Myeloma” (Biomedicines, 2022).
“And” between values parts separate entries of the source, which are not always exact repeats. Equal entries are not always repeated.

Tested on: RPMI-8226 cells
Assay: Gene expression profiling, NanoString nCounter PanCancer Pathways Panel, ROSALIND analysis
Format: cell-based, human
Details: RPMI-8226, TCH-165 samples 1-3
Protocol: RPMI-8226 cells were treated with vehicle or TCH-165 (10 μM) for 4 h. Total RNA was obtained using the mirVana miRNA Isolation Kit, with phenol (Thermofisher Scientific; AM1560; Waltham, MA, USA). Total RNA was quantified by Qubit (Thermofisher Scientific; Q32855; Waltham, MA, USA). and gene expression was evaluated against the nCounter® PanCancer Pathways Panel^TM according to the standard NanoString protocol.
Data were analyzed by ROSALIND® [36] with a hyperscale architecture developed by ROSALIND, Inc. (San Diego, CA, USA). Normalization, fold changes and p-values were calculated using criteria provided by NanoString. ROSALIND follows the nCounter® Advanced Analysis protocol of dividing counts within a lane by the geometric mean of the normalizer probes from the same lane. Housekeeping probes to be used for normalization are selected based on the geNorm algorithm, as implemented in the NormqPCR R library. Fold changes and p-values are calculated using the fast method as described in the nCounter Advanced Analysis 2.0 User Manual. The p-value adjustment is performed using the Benjamini–Hochberg method of estimating false discovery rates (FDR). Clustering of genes for the final heatmap of differentially expressed genes was done using the PAM (Partitioning Around Medoids) method using the fpc R library. Hypergeometric distribution was used to analyze the enrichment of pathways, gene ontology, domain structure and other ontologies. The topGO R library was used to determine local similarities and dependencies between GO terms in order to perform Elim pruning correction. Several database sources were referenced for enrichment analysis, including Interpro [40], NCBI [41], MSigDB [42, 43], REACTOME [44], WikiPathways. Enrichment was calculated relative to a set of background genes relevant to the experiment.

With `CCOC(=O)[C@]1(c2ccccc2)N=C(c2ccc(OC)cc2)N(Cc2ccccc2)[C@@H]1c1ccc(NCc2ccccc2)cc1` [TCH-165] the “HRAS normalized gene expression” value was 7.087 and 7.184 and 7.0682, the “HSP90B1 normalized gene expression” value was 11.9809 and 12.0196 and 12.0083 and the “HSPA1A normalized gene expression” value was 6.793 and 6.667 and 6.528. For the same compound, the “HSPA2 normalized gene expression” value was 5.259 and 4.962 and 5.39, the “HSPA6 normalized gene expression” value was 8.169 and 8.132 and 8.184 and the “HSPB1 normalized gene expression” value was 10.6744 and 10.4282 and 10.4272. The “IBSP normalized gene expression” value was 4.101 and 4.427 and 3.5707, the “ID1 normalized gene expression” value was 7.234 and 7.077 and 7.39 and the “ID2 normalized gene expression” value was 8.252 and 8.085 and 8.156. For the same compound, the “ID4 normalized gene expression” value was 5.308 and 4.962 and 4.5707, the “IDH1 normalized gene expression” value was 8.037 and 7.944 and 8.087 and the “IDH2 normalized gene expression” value was 10.7214 and 10.6097 and 10.5399. For the same compound, the “IFNA2 normalized gene expression” value was 4.793 and 5.029 and 4.876, the “IFNA7 normalized gene expression” value was 4.208 and 3.891 and 3.653 and the “IFNA17 normalized gene expression” value was 5.445 and 5.817 and 5.712. For the same compound, the “IFNG normalized gene expression” value was 4.723 and 3.739 and 3.731, the “IGF1R normalized gene expression” value was 9.24 and 9.089 and 9.141 and the “IGF1 normalized gene expression” value was 5.686 and 5.427 and 5.0682. The “IGFBP3 normalized gene expression” value was 11.5972 and 11.5942 and 11.578, the “IKBKB normalized gene expression” value was 7.271 and 7.249 and 6.85 and the “IKBKG normalized gene expression” value was 8.189 and 8.037 and 8.156. The “IL1A normalized gene expression” value was 4.208 and 4.154 and 4.0682, the “IL1B normalized gene expression” value was 5.044 and 4.427 and 4.805 and the “IL1R1 normalized gene expression” value was 4.723 and 4.27 and 4.1271. The “IL1RAP normalized gene expression” value was 6.044 and 5.927 and 6.0682, the “IL2RA normalized gene expression” value was 4.571 and 4.27 and 4.291 and the “IL2RB normalized gene expression” value was 4.101 and 3.891 and 4.437. The “IL3RA normalized gene expression” value was 6.378 and 6.614 and 6.197, the “IL3 normalized gene expression” value was 5.61 and 4.996 and 5.211 and the “IL5RA normalized gene expression” value was 6.182 and 6.2133 and 6.211. The “IL6R normalized gene expression” value was 6.156 and 6.045 and 5.926, the “IL6 normalized gene expression” value was 4.308 and 3.476 and 3.0682 and the “IL7R normalized gene expression” value was 4.571 and 4.569 and 4.528. The “IL7 normalized gene expression” value was 4.101 and 4.739 and 4.805, the “IL10 normalized gene expression” value was 5.892 and 6.27 and 6.238 and the “IL11RA normalized gene expression” value was 4.649 and 4.476 and 3.291. The “IL11 normalized gene expression” value was 4.208 and 4.324 and 4.341, the “IL12A normalized gene expression” value was 2.986 and 2.739 and 2.943 and the “IL12B normalized gene expression” value was 4.86 and 4.657 and 4.613. For the same compound, the “IL12RB2 normalized gene expression” value was 4.401 and 3.476 and 3.39, the “IL13RA2 normalized gene expression” value was 3.86 and 3.962 and 3.39 and the “IL13 normalized gene expression” value was 3.986 and 4.699 and 4.653. The “IL15 normalized gene expression” value was 3.986 and 3.962 and 4.0682, the “IL19 normalized gene expression” value was 5.044 and 4.855 and 5.0068 and the “IL20RA normalized gene expression” value was 4.101 and 3.739 and 4.0682. The “IL20RB normalized gene expression” value was 5.892 and 5.836 and 5.613, the “IL23A normalized gene expression” value was 6.355 and 5.979 and 6.038 and the “IL24 normalized gene expression” value was 4.208 and 5.427 and 4.876. The “INHBA normalized gene expression” value was 4.793 and 4.569 and 4.0682, the “INHBB normalized gene expression” value was 5.53 and 5.927 and 5.75 and the “IRAK2 normalized gene expression” value was 5.892 and 5.524 and 5.893. The “IRAK3 normalized gene expression” value was 5.156 and 5.029 and 4.805, the “IRS1 normalized gene expression” value was 5.308 and 4.996 and 4.805 and the “ITGA2 normalized gene expression” value was 3.723 and 3.657 and 3.731. The “ITGA3 normalized gene expression” value was 7.115 and 6.979 and 6.693, the “ITGA6 normalized gene expression” value was 5.259 and 5.242 and 4.653 and the “ITGA7 normalized gene expression” value was 4.208 and 4.154 and 4.943. For the same compound, the “ITGA8 normalized gene expression” value was 5.488 and 4.891 and 5.098, the “ITGA9 normalized gene expression” value was 4.86 and 4.996 and 4.437 and the “ITGB3 normalized gene expression” value was 3.401 and 2.739 and 3.731. The “ITGB4 normalized gene expression” value was 5.308 and 5.184 and 5.0682, the “ITGB6 normalized gene expression” value was 5.571 and 5.2133 and 5.291 and the “ITGB7 normalized gene expression” value was 14.1153 and 14.105 and 14.0545. For the same compound, the “ITGB8 normalized gene expression” value was 6.445 and 6.452 and 6.602, the “JAG1 normalized gene expression” value was 8.08 and 7.864 and 7.85 and the “JAG2 normalized gene expression” value was 7.169 and 7.476 and 7.455. For the same compound, the “JAK1 normalized gene expression” value was 9.467 and 9.41 and 9.414, the “JAK2 normalized gene expression” value was 6.331 and 6.311 and 6.4021 and the “JUN normalized gene expression” value was 8.667 and 8.646 and 8.78. The “KAT2B normalized gene expression” value was 7.955 and 8.18 and 8.102, the “KDM5C normalized gene expression” value was 9.094 and 8.985 and 8.924 and the “KDM6A normalized gene expression” value was 4.401 and 4.029 and 3.943. For the same compound, the “KIT normalized gene expression” value was 5.101 and 4.739 and 4.528, the “KITLG normalized gene expression” value was 4.649 and 4.739 and 4.5707 and the “KLF4 normalized gene expression” value was 4.308 and 4.996 and 4.769. For the same compound, the “KMT2D normalized gene expression” value was 8.115 and 8.314 and 8.228, the “KRAS normalized gene expression” value was 11.0766 and 10.9767 and 10.9365 and the “LAMA3 normalized gene expression” value was 5.308 and 5.324 and 5.1271. The “LAMA5 normalized gene expression” value was 5.986 and 5.739 and 5.693, the “LAMB3 normalized gene expression” value was 6.234 and 6.169 and 6.1271 and the “LAMB4 normalized gene expression” value was 4.401 and 4.029 and 3.731. The “LAMC2 normalized gene expression” value was 3.723 and 3.27 and 3.731, the “LAMC3 normalized gene expression” value was 5.649 and 4.996 and 4.693 and the “LAT normalized gene expression” value was 5.723 and 5.927 and 5.366. The “LEF1 normalized gene expression” value was 3.86 and 2.891 and 2.291, the “LEFTY1 normalized gene expression” value was 5.723 and 4.855 and 5.0068 and the “LEFTY2 normalized gene expression” value was 6.571 and 6.657 and 6.814. The “LEP normalized gene expression” value was 5.259 and 4.855 and 4.291, the “LEPR normalized gene expression” value was 6.401 and 5.817 and 6.378 and the “LFNG normalized gene expression” value was 5.758 and 5.2133 and 4.805. For the same compound, the “LIF normalized gene expression” value was 5.259 and 5.029 and 5.156.
